≈ marks a conversion by molar mass, not a printed value. Where “and” joins values, the source holds several entries; their conditions need not be identical. Equal values may be shown once. Read-outs that look alike come from different tables or passages of the source.
Tests used:
[1] = test system: intracellular T. cruzi amastigotes; assay: T. cruzi intracellular potency assay (high content imaging); assay type: cell-based, Trypanosoma cruzi; design: key to Max Effect (T. cruzi): % inhibition; 0% = DMSO control, 100% = 16 μM nifurtimox control; settings: for Emax / EC50 / IC50: Trypanosoma cruzi; for Emax / EC50 / Hill slope (T. cruzi) / Max Effect (T. cruzi) / pEC50 (T. cruzi): individual replicate; for Emax: read-out: Max Effect (T. cruzi); for EC50: read-out: pEC50 (T. cruzi) (converted); for IC50: read-out: T. cruzi pIC50 (converted)
Procedure: (§1) T. cruzi intracellular potency and rate-of-kill assay (high content imaging) ^1
(§2) Silvio X10/7 T. cruzi trypomastigotes were incubated at 37°C 5% CO2 with 1.6×10^7 Vero cells overnight at MOI10 in MEM media supplemented with 10% foetal calf serum (FCS). Extracellular parasites were removed by aspirating cell culture supernatant, and washing Vero monolayer with 10 ml serum-free MEM three times. Vero cells were then harvested by trypsinization and dispensed at 2×10^3 per well (50 μl in MEM/ 1% FCS) into 384 well plates pre-stamped with compounds in DMSO using automated washer/ dispenser EL406 and liquid handling software (Biotek). Plates were then incubated at 37°C in 5% CO2 for 96 h. For rate-of-kill determination, plates were incubated for 24h, 48h, 72h and 96h.
(§3) Plates were subsequently fixed with 4% formaldehyde for 20 min, permeabilised and stained with 5 μgml^-1 Hoechst 33342/ 0.1% Triton/ PBS Thimerosal 20 min. Automated imaging was performed by an Operetta high content imaging system using 20x objective (PerkinElmer). Images were analysed with an algorithm generated in Columbus (PerkinElmer) to segment Vero cell nuclei, Vero cell cytoplasm and parasite nuclei/ kinetoplasts, reporting number of amastigotes per Vero cell, percent infected Vero cells and total number of Vero cells. Compound potencies against T. cruzi parasites were calculated in IDBS Activitybase using percent infected Vero cells and Vero toxicity curves generated using number of host cells. All data was normalised to percent inhibition based on the raw data values for the 100% effect control (16 μM nifurtimox) and the 0% effect control (DMSO) on each plate at each time point. Curve fitting was carried out using a four-parameter equation as previously described. ^2 For rate-of-kill experiments the percent infected cells at each compound concentration was plotted against time.

[2] = test system: host Vero cell; assay: Vero host cell toxicity in the intracellular T. cruzi assay; assay type: cell-based; design: key to Max Effect (Vero): % inhibition; 0% = DMSO control, 100% = 16 μM nifurtimox control; settings: for EC50 / IC50: Chlorocebus sabaeus; for EC50: Vero; for EC50 / Max Effect (Vero) / pEC50 (Vero) / Hill Slope (Vero): individual replicate; for IC50: read-out: Vero pIC50 (converted)
Procedure: as §1, §2, §3

[3] = Kinetic aqueous solubility by CAD; assay type: physicochemical
[4] = Mouse liver microsomal intrinsic clearance; assay type: in vitro ADME
[5] = Human liver microsomal intrinsic clearance; assay type: in vitro ADME
[6] = ChromLogD pH7.4 (chromatographic hydrophobicity index), PFI, LLE; settings: for PFI: ChromLogDpH7.4 + no. aromatic rings
Source text: [23] Alongside PFI, LLE (ligand lipophilic efficiency, T. cruzi pIC50 - ChromLogDpH7.4) was also monitored to identify changes where the impact on potency was not driven by increasing lipophilicity.

[7] = intracellular amastigotes in Vero cells, 96 h, mean of N ≥ 3
[8] = kinetic from dmso stock, kinetic, CAD, read-out: Aqueous solubility

Molecule	Emax [1] [%]	EC50 [1] [µM]	Hill slope (T. cruzi) [1]	Max Effect (T. cruzi) [1]	pEC50 (T. cruzi) [1]	EC50 [2] [µM]	Max Effect (Vero) [2]	pEC50 (Vero) [2]	IC50 [1, 7] [µM]	IC50 ([2]; host Vero cell) [µM]	solubility ([3]; kinetic from dmso stock) [µM]	MLM CLi ([4]; mouse, microsomes) [mL/min/g]	HLM CLi ([5]; human, microsomes) [mL/min/g]	PFI [6]	chromatographic logD ([6]; pH 7.4)	solubility [3, 8] [µM]	MLM CLi ([4]; mouse liver microsomes) [mL/min/g]	HLM CLi ([5]; human liver microsomes) [mL/min/g]	further results
CC(C)N(C(=O)CN1C(=O)C(N)C(=O)N(c2ccccc2)c2ccccc21)c1ccccc1 (single isomer, unassigned) [14-Ent 1, 2-(3-amino-2,4-dioxo-5-phenyl-2,3,4,5-tetrahydro-1H-benzo[b][1,4]diazepin-1-yl)-N-isopropyl-N-phenylacetamide]	94	0.316	3.1 and 5.7	88	6.4	> 50.1	27 and 35	< 4.3											
COc1ccc(CN2C(=O)C(N)C(=O)N(c3ccccc3)c3c(F)cccc32)cc1 (centres unmarked) [Compound 21, 3-amino-6-fluoro-1-(4-methoxybenzyl)-5-phenyl-1,5-dihydro-2H-benzo[b][1,4]diazepine-2,4(3H)-dione]	81		13.4 and 21.5 and 12.3 and 1.4 and 2.3 and 17.2	88 and 90 and 85	5.8 and 6.3 and 5.7	> 50.1	-0.364 and 17 and 0.947 and 18 and 21 and 12		1.26	> 50.1	> 217	9.0	<0.4	7.3	4.3				
Cc1ccc(NC(=O)NC2C(=O)Nc3ccccc3N(C3CCOCC3)C2=O)cc1 (centres unmarked) [Compound 8, 1-(2,4-dioxo-1-(tetrahydro-2H-pyran-4-yl)-2,3,4,5-tetrahydro-1H-benzo[b][1,4]diazepin-3-yl)-3-(p-tolyl)urea]	73	10	2.6 and 1.3 and 1.9	78 and 81	4.9 and 4.8	> 50.1	17 and 36 and -0.637 and 18		12.6	> 50.1				5.5	3.5	380 (≈ 155 µg/mL)	0.7	<0.4	
COc1ccc(CN2C(=O)CC(=O)N(c3ccc(OC)cc3)c3ccccc32)cc1 [Compound 23, 1-(4-methoxybenzyl)-5-(4-methoxyphenyl)-1,5-dihydro-2H-benzo[b][1,4]diazepine-2,4(3H)-dione]		> 50.1		39 and 11 and 27 and 29		> 50.1	2.11 and 2.25 and 31 and 32		> 50.1	> 50.1	175 (≈ 70.4 µg/mL)	80	>37	8.1	5.1				
Cc1ccc(NC(=O)NC2CN(c3ccccc3)c3ccccc3NC2=O)cc1 (centres unmarked) [Compound 10, 1-(4-oxo-1-phenyl-2,3,4,5-tetrahydro-1H-benzo[b][1,4]diazepin-3-yl)-3-(p-tolyl)urea]	86		3.5 and 12.0 and 3.2 and 0.8	83 and 85	5.0 and 4.9 and 5.3		96 and 91 and 95 and 63	4.7 and 5.2 and 4.6 and 5.3	7.94	12.6				8.7	5.7	23 (≈ 8.89 µg/mL)	3.5	<0.4	Hill Slope (Vero) [2]: 3.6 and 42.2 and 4.8 and 14.3
COc1ccccc1N1C(=O)C(NC(=O)Nc2ccc(C)cc2)C(=O)Nc2ccccc21 (centres unmarked) [Compound 6, 1-(1-(2-methoxyphenyl)-2,4-dioxo-2,3,4,5-tetrahydro-1H-benzo[b][1,4]diazepin-3-yl)-3-(p-tolyl)urea]	79	31.6	2.9 and 3.1 and 3.8 and 11.3	81 and 90 and 77	4.6 and 4.3	> 50.1	38 and 21 and 11 and 12		31.6	> 50.1	129 (≈ 55.5 µg/mL)	2.1	<0.4	7.7	4.7				
Cc1ccc(NC(=O)NC2CNc3ccccc3N(c3ccccc3)C2=O)cc1 (centres unmarked) [Compound 11, 1-(2-oxo-1-phenyl-2,3,4,5-tetrahydro-1H-benzo[b][1,4]diazepin-3-yl)-3-(p-tolyl)urea]	67	25.1	1.3 and 2.0 and 1.7 and 2.2	77 and 75 and 73	4.7	> 50.1	20 and 21 and 9 and 10		25.1	> 50.1				8.4	5.4	< 1	4.0	<0.4	
CC(C)N(C(=O)CN1C(=O)C(N)C(=O)N(c2ccccc2)c2ccccc21)c1ccccc1 (single isomer, unassigned) [14-Ent 2, 2-(3-amino-2,4-dioxo-5-phenyl-2,3,4,5-tetrahydro-1H-benzo[b][1,4]diazepin-1-yl)-N-isopropyl-N-phenylacetamide]			85.9 and 4.0	82	6.7 and 6.6		5.45 and 20	< 4.3											
Cc1ccc(NC(=O)NC2C(=O)Nc3ccccc3N(C(C)C)C2=O)cc1 (centres unmarked) [Compound 7, 1-(1-isopropyl-2,4-dioxo-2,3,4,5-tetrahydro-1H-benzo[b][1,4]diazepin-3-yl)-3-(p-tolyl)urea]		20	2.0 and 0.8 and 3.3 and 2.1	86 and 58 and 83 and 89	4.9 and 5.0	> 50.1	25 and 30 and 20 and -11		12.6	> 50.1				6.2	4.2	25 (≈ 9.16 µg/mL)	1.8	<0.4	
Cc1ccc(NC(=O)NC2COc3ccccc3N(c3ccccc3)C2=O)cc1 (centres unmarked) [Compound 13, 1-(4-oxo-5-phenyl-2,3,4,5-tetrahydrobenzo[b][1,4]oxazepin-3-yl)-3-(p-tolyl)urea]			2.6 and 8.4 and 3.4 and 2.9 and 1.5	84 and 89 and 94 and 80 and 46	4.6 and 4.8 and 4.7 and 4.5 and < 4.3	39.8	80 and 67 and 70 and 76 and 15 and 5.57	4.3 and < 4.3	25.1	50.1				9.1	6.1	27 (≈ 10.5 µg/mL)	4.9	<0.4	Hill Slope (Vero) [2]: 12.0 and 13.9 and 15.1 and 6.4
O=C(Nc1ccc(F)cc1)NC1C(=O)Nc2ccccc2N(c2ccccc2)C1=O (centres unmarked) [Compound 3, 1-(2,4-dioxo-1-phenyl-2,3,4,5-tetrahydro-1H-benzo[b][1,4]diazepin-3-yl)-3-(4-fluorophenyl)urea]	90	12.6	2.0 and 0.8 and 2.1 and 1.3	92 and 95 and 83	5.1 and 4.8	> 50.1	-12 and 14 and 22 and 36		10	> 50.1	26 (≈ 10.5 µg/mL)	0.6	<0.4	7.4	4.4				
3-amino-6-fluoro-1-(4-methoxybenzyl)-5-(4-methoxyphenyl)-1,5-dihydro-2H-benzo[b][1,4]diazepine-2,4(3H)-dione [Compound 22]			11.8 and 10.3 and 3.4 and 21.3	77 and 98 and 83 and 82	7.2		3.52 and 24 and 2 and 12	< 4.3						7.2			2.2	<0.4	T. cruzi pIC50 [1, 7]: 7.2 ± 0.0; Vero pIC50 ([2]; host Vero cell): <4.3; solubility ([3]; kinetic, CAD, read-out: Aqueous solubility): 168 µM; Chrom LogDpH7.4 ([6]; pH 7.4): 4.2

Source: publication PMC12208134, “Structure-activity relationships of 1,5-dihydro-2H-benzo[b][1,4]diazepine-2,4(3H)-diones as inhibitors of Trypanosoma cruzi” (RSC medicinal chemistry, 2025)
